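Cells were grown in 96-well plates and exposed to each compound for 48 hours at five concentrations; endpoints were interpolated linearly between bracketing concentrations, or set to the highest concentration if not reached. GI50 is the concentration that inhibits growth by half. TGI marks complete inhibition of growth.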
Legend:
Assay in all cases: NCI tumour cell line growth inhibition, 48 h
COLO 205 colon = system: COLO 205 colon
EKVX NSCLC = system: EKVX NSCLC
HCT-15 colon = system: HCT-15 colon
HL-60(TB) leukemia = system: HL-60(TB) leukemia
OVCAR-8 ovarian = system: OVCAR-8 ovarian
RPMI-8226 leukemia = system: RPMI-8226 leukemia
SF-539 CNS = system: SF-539 CNS
SK-MEL-2 melanoma = system: SK-MEL-2 melanoma
SNB-75 CNS = system: SNB-75 CNS
U251 CNS = system: U251 CNS

| Structure (SMILES) | GI50 (COLO 205 colon) [µM] | TGI (COLO 205 colon) [µM] | GI50 (EKVX NSCLC) [µM] | TGI (EKVX NSCLC) [µM] | GI50 (HCT-15 colon) [µM] | TGI (HCT-15 colon) [µM] | GI50 (HL-60(TB) leukemia) [µM] | TGI (HL-60(TB) leukemia) [µM] | GI50 (OVCAR-8 ovarian) [µM] | TGI (OVCAR-8 ovarian) [µM] | GI50 (RPMI-8226 leukemia) [µM] | TGI (RPMI-8226 leukemia) [µM] | GI50 (SF-539 CNS) [µM] | TGI (SF-539 CNS) [µM] | GI50 (SK-MEL-2 melanoma) [µM] | TGI (SK-MEL-2 melanoma) [µM] | GI50 (SNB-75 CNS) [µM] | TGI (SNB-75 CNS) [µM] | GI50 (U251 CNS) [µM] | TGI (U251 CNS) [µM] |
| --- | --- | --- | --- | --- | --- | --- | --- | --- | --- | --- | --- | --- | --- | --- | --- | --- | --- | --- | --- | --- |
| CN(C)CCNc1nc2ccccc2c2c1c1c(n2Cc2ccccc2)-c2ccccc2C1=O | 16.6 | 65.3 | 16.3 | 32.3 | 10.7 | 26.1 | 15.2 | 34.1 | 6.14 | 52.2 | 2.78 | 17.7 | 14 | 29.4 | 10.9 | 28.9 | 14.4 | 28.9 | 14.4 | 29.2 |
| CC1CC(c2ccccc2)=Nc2ccccc2S1(=O)=O (stereo not given) |  | 40.9 |  | 39.6 |  | 54.2 |  | 52.8 |  | 43.9 |  | 5.59 |  | 34.1 |  | 31.3 |  | 35.9 |  | 31.9 |
| COc1ccc(NC(=O)C2C(=O)N(c3ccc(OC)cc3)C(=O)/C2=N/O)cc1 (stereo not given) |  | > 100 |  | 97.2 |  | > 100 |  | > 100 |  | 32 |  | > 100 |  | 36.7 |  | > 86.8 |  | > 73.7 |  | 42.9 |
| CCN(CC)CCC1CC/C(=C\c2ccc(OC)cc2)C1=O (stereo not given) |  | 38.9 |  | > 100 |  | > 100 |  | > 100 |  | > 100 |  | > 100 |  | > 100 |  | > 100 |  | > 100 |  | > 100 |
| CCC(=O)c1cn(C)c(=O)c2ccccc12 |  | > 100 |  | > 100 |  | > 100 |  | > 100 |  | > 100 |  | > 100 |  | > 100 |  | > 100 |  | > 100 |  | > 100 |
| Nc1nc(-c2cccc([N+](=O)[O-])c2)c(Br)c(=O)[nH]1 |  | > 100 |  | > 100 |  | > 100 |  | > 100 |  | > 100 |  | > 100 |  | > 82 |  | > 100 |  | > 100 |  | > 100 |
| C=CCc1cc2cccc(OC)c2oc1=O |  | > 100 |  | > 100 |  | > 100 |  | > 100 |  | > 100 |  | > 100 |  | > 100 |  | > 100 |  | > 100 |  | > 100 |
| COc1cc(-c2cc(=O)c3cc4c(cc3[nH]2)OCO4)cc(OC)c1OC |  | > 100 |  | > 100 |  | > 100 |  | > 100 |  | > 100 |  | > 100 |  | > 100 |  | > 100 |  | > 100 |  | > 100 |
| Cc1c(CCCl)c(=O)n2c([nH]c3ccccc32)c1C#N |  | 0.28 |  | 3.65 |  | 2.93 |  | > 10 |  | 3.15 |  | 7.45 |  | 2.79 |  | 4.46 |  | 2.78 |  | 3.45 |
| COc1cc(-c2cnn(C)c2)ccc1Nc1ncc2ccnc(N[C@@H](C)C(C)(C)C)c2n1 | 1.81 | > 100 | > 100 | > 100 | 0.651 | > 100 | > 100 | > 100 | > 49.6 | > 100 | > 100 | > 100 | > 57.3 | > 100 | > 100 | > 100 | 3.26 | > 100 | > 55.8 | > 100 |

Reference: PubChem BioAssay (NCI)
